Results as given in patent US20170152245A1 (National Taiwan University, priority 2015, published 2017).
Read-outs that look alike come from different tables or passages of the source.

Experiments:
[1] = system: human platelet-rich plasma; assay: Arachidonic acid-induced platelet aggregation in human platelet-rich plasma; assay type: cell-based; conditions: arachidonic acid 200 μM
Protocol: (§1) Human platelet suspension (PS) was prepared according to the method described previously. Briefly, blood sample, freshly obtained from healthy volunteers who had taken no medications during the preceding 2 weeks, was treated with acid citrate/dextrose (ACD) in a volume ratio of 9:1. After centrifugation at 120 g, 25° C. for 9 min, platelet-rich plasma was transferred into another plastic tube and incubated with heparin (6.4 U/ml) as well as prostaglandin E1 (1 μM). Platelets were spun down by centrifugation at 500 g, 25° C. for 8 min and subsequently washed two times with Tyrode solution (NaH2PO4 0.4 mM; NaCl 136.9 mM; KCl […]; NaHCO3 11.9 mM; CaCl2 2 mM; MgCl2 2.1 mM; glucose 11.1 mM; BSA 3.5 mg/ml; pH 7.35-7.4). The washed platelets were finally suspended in Tyrode's solution and the platelet count was adjusted to 3.75×10^8 platelets/ml. For platelet-rich plasma (PRP) preparation, whole blood was anticoagulated with 1/10 vol of sodium citrate (3.8%, w/v) and centrifuged at 150 g, 25° C. for 9 min.
Platelet aggregation was measured turbidimetrically with a Lumi-aggregometer (Payton Scientific) at 37° C. under stirring condition (900 rpm). […] The extent of platelet aggregation was determined by recording the increase of light transmission relative to that of control (maximal aggregation, as 100%) for 6 min after the addition of inducer. […]

mouse PRP = assay: Ex vivo mouse PRP aggregation caused by U46619; assay type: in vivo, mice; conditions: 10 μg/g i.v.; U46619 0.125 μM; compared to nstpbp5185
Protocol: Mice were i.v. injected with vehicle, nstpbp5185 (10 μg/g) or Ctkf6f2 (10 μg/g). The blood samples were collected within 10 mins by intracardiac puncture for PRP, and U46619 (0.125 μM) was added. Platelet aggregation was measured turbidimetrically using platelet aggregometer. Shown are representative of three independent experiments.
Furthermore, the platelet aggregation was evaluated on ex vivo mouse model. The mouse was i.v. administered with compound 5185 (10 μg/g) or Ctkf6f2 (10 μg/g), compared to the vehicle-treated control. The blood was collected and evaluated for its response to U46619 (0.125 μM) on the aggregometer (FIG. 10).

[2] = system: human platelet suspension; assay: ADP-induced platelet aggregation in human platelet suspension; assay type: cell-based
Protocol: as §1
Platelet aggregation was measured turbidimetrically with a Lumi-aggregometer (Payton Scientific) at 37° C. under stirring condition (900 rpm). Platelet suspensions were prewarmed to 37° C. for 2 min in a silicone-treated glass cuvette. Nstpbp5185 was added 3 min before the addition of platelet-aggregation inducers. The extent of platelet aggregation was determined by recording the increase of light transmission relative to that of control (maximal aggregation, as 100%) for 6 min after the addition of inducer. The final volume and platelet count for measuring platelet aggregation were 500 μl and 3×10^8/ml, respectively.

mice = assay: OVA-induced asthmatic mice (sensitization and airway challenge); assay type: in vivo
Protocol: Mice were divided into groups receiving the following treatments: (1) sham sensitization plus challenge with phosphate buffered saline (PBS) (n=5), (2) sensitization plus challenge with OVA (Sigma A5503; Sigma, St. Louis, Mo.) (n=10), and (3 and 4) sensitization with OVA (i.p.) plus challenge with and nstpbp5185 (10 or 20 mg/kg) (n=6-7). […] Mice were challenged through the airway with 100 μg OVA in 40 μL PBS buffer via intranasal administration (i.n.) days 36, 37 and 38 and AHR induced by methacholine (MCh) were measured at day 39. Animals were sacrificed 24 h after the AHR measurement. The mice were placed in the main chamber of a whole body plethysmograph (Buxco Electronics, Inc., Sharon, Conn., USA) and challenged with aerosolized 0.9% normal saline accompanied by increasing doses of methacholine (6.25-50 mg/ml). Each nebulization lasted for 3 min, and after each nebulization, recordings were taken and averaged for the 3 min. The Penh values were determined, and the data were expressed as Penh values.
Serum were collected and stored at −70° C. after centrifugation (3000 rpm, 10 min). The amount of OVA-specific IgE was determined by ELISA. Briefly, 96-well plates were coated with OVA at 10 μg/well. After the plates were blocked, 100 μl/well of diluted sera was added, and the plates were incubated at room temperature for 2 h or at 4° C. overnight. After incubation, the plates were washed five times with PBS with Tween 20 buffer, the secondary antibody (biotinylated rat anti-mouse IgE; AbD Serotec, Kidlington, UK) was added and plates were incubated for 1 h at room temperature. […] The avidin-horseradish peroxidase was removed by washing with PBS with Tween 20 buffer, and the bound enzyme substrate was detected by adding tetramethylbenzidine reagent (KPL, Gaithersburg, Md., USA). […] Optical density was measured at 450 nm (550 nm was used as a reference filter) in a microplate autoreader (Anthos Reader 2010; Anthos Labtec Instruments GmbH, Salzburg, Austria).

TP receptor = molecular target: T1, TP receptor (Homo sapiens, UniProt P21731); assay: [3H]SQ-29548 binding to TP receptor of recombinant HEK-293 cells
T1 construct: expressed in transfected cells; host or cells: HEK-293
T1 sequence (P21731 1-343): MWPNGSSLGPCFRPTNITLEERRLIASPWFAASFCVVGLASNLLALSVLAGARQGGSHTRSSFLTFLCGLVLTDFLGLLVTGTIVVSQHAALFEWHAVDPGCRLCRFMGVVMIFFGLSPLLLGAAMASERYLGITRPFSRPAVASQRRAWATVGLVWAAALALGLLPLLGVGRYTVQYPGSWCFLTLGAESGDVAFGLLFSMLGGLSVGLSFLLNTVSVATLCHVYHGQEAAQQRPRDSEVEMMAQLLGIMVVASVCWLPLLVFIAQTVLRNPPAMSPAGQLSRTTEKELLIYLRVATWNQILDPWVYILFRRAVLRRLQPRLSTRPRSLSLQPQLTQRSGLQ
Protocol: Freshly prepared samples of this suspension were incubated with [^3H]SQ-29548 (5 nM final concentration), for 60 min at 25° C. The displacement was initiated by addition of nstpbp5185 dissolved in the same buffer. After incubation (30 min, 25° C.), ice-cold Tris-HCl buffer (10 mM, pH 7.4) was added, the sample was rapidly filtered through a glass fiber filter, and the tube rinsed twice with ice-cold buffer. The filters were then placed in plastic scintillation vials containing an emulsion-type scintillation mixture, and the radioactivity was counted.

Structure (SMILES)	IC50 [1] [µM]	inhibition of platelet aggregation of PRP induced by U46619, ex vivo (mouse PRP)	effect on platelet aggregation caused by ADP ([2]; data not shown)	% inhibition ADF ([2]; human platelet suspension, preliminary, compound concentration not given) [%]	cellular infiltration of the airways (mice; 10 and 20 mg/kg/day)	OVA-specific IgE, IgG2a and IgG1 levels in serum (mice; 10 or 20 mg/kg)	asthma symptoms after OVA challenge (mice; Group 3 and Group 4 (10 or 20 mg/kg))	Thromboxane receptor (TP receptor; Table III arrows)	IC50 (TP receptor; [3H]SQ-29548 5 nM, read-out: IC50 in displacing 3H-SQ-29548 from TP receptor expressed on HEK-293 cells) [nM]	IC50 (TP receptor; read-out: thromboxane A2 receptor blockade IC50) [nM]
Cc1ccc(-c2nc3ccc(F)cc3n2Cc2cccc(F)c2)o1 [Ctkf6f2, 6-fluoro-1-(3-fluorobenzyl)-2-(5-methyl-2-furyl)benzimidazole]	8.87 ± 2.52	superior inhibition								
Cc1ccc(-c2nc3ccccc3n2Cc2ccccc2)o1 [Example 6, 1-Benzyl-2-(5-methyl-2-furyl)benzimidazole]			little effects	10.9	reduced	significant reduction	alleviated symptoms	↓	~100	100
